{"source": "patent US20200316096A1", "about": "“COMBINATION OF DIET AND DRUG THERAPY FOR TREATING CANCER” (Trustees of Boston College, priority 2019, published 2020)", "key": {"[1]": {"experiment": "Toxicity and body weight observations in DON treated mice", "format": "in vivo, mouse", "protocol": "FIG. 11. Body weights of VM-M3 tumour bearing mice. VM-M3/Fluc tumour fragments were implanted as described in FIGS. 1A-1F. Body weight was determined every alternate day. Initial and final body weight data are presented. Mice fed the SD-UR began to drop body weight on the day of termination due to tumour burden. Mice fed the KD-R maintained a 15-18% body weight reduction throughout the experiment due to reduced caloric intake. Initial and final body weights were similar in the SD-UR and the SD-UR+DON mice (n=15 mice/group). Final body weights were lower than initial body weights in the KD-R and the KD-R+DON mice (n=15 mice/each group). Values are expressed as the mean+/−SEM and a two tailed student's t-test was performed between the initial and final values of each group (*=p<0.01).\nIt is proposed that issues with DON toxicity arise when there is an appreciable competition for glutamine between host and tumour. There is also increasing evidence supporting the protective role of glutamine supplementation for cancer patients^46. Since tumour consumption of glutamine is dissipative, glutamine supplementation might not increase tumour growth^46. However, additional preclinical studies are needed to determine if glutamine supplementation could be used together with DON. The present disclosure provides that strategies for managing toxicity of a therapeutically effective drug would be as important as developing a new drug.\nThe following studies were to determine if the simultaneous targeting of glucose and glutamine, while under therapeutic ketosis, could manage late stage growth and enhance survival without toxicity in two different syngeneic mouse models of GBM. DON was administered 7 days after tumour implantation, which is considered late for the VM-M3/Fluc tumour, as neurological signs and symptoms first appear at 10 to 12 days post implantation with morbidity occurring in 100% of the tumour-bearing mice by 14-18 days^2. Additional results were obtained in C57BL/6J inbred mice bearing the syngeneic CT-2A high-grade stem cell glioma^32. […]"}, "[2]": {"experiment": "LC/MS/MS analysis of DON in plasma and VM-M3 brain tumour tissue", "format": "in vivo, mouse (VM/Dk)", "conditions": "for concentration of DON in VM-M3 tumour tissue, mice fed KD-R versus mice fed SD-UR: 60 min after i.p. DON 1.0 mg/kg", "protocol": "FIGS. 4A and 4B. Restricted Ketogenic diet increases DON delivery to the VM-M3 GBM. The content of DON in the VM-M3 brain tumour tissue was quantified using two LC/MS/MS procedures, as described in Methods. The brain tissue was analyzed for DON content 60 minutes after i.p. DON injection. The values in experiment a are presented as mean of two independent samples, while the values in experiment b are presented as the mean±SEM (n=3). The difference between the two groups in experiment b was significant (P<0.01).\nPlasma and brain tissues were prepared for DON analysis one hour after systemic DON injection, as described in Methods below. […] In another independent experiment, using a similar analytical system, the concentration of DON in the VM-M3 tumour tissue was about 3-fold greater in mice fed the KD-R than in mice fed the SD-UR (FIG. 4B). In both methods of measurement, DON delivery to the brain was greater in the mice fed the KD-R than in the mice fed the SD-UR (FIGS. 4A and 4B). DON was detected in plasma 10 min after i.p. injection (data not shown) and was detected in brain tissue 60 min following injection. These findings indicate that the KD-R facilitated delivery of DON to the VM-M3 tumour tissue.\nTwo independent LC-MS instruments and procedures were used to measure the amount of DON in the blood and in the VM-M3 tumour tissues. This was done to validate the accuracy of the procedures. A Triple quad method (Agilent 6460) was used to analyze DON in the first procedure (FIG. 4A). Mice were injected with 1.0 mg/kg of DON at either 10 min or 60 min before collection of the brains and blood. The brains were immediately flash frozen. Blood samples were collected before removal of the brain. 3N HCl+n-butanol (250 μl) was added to 50 μl of plasma, vortexed and then centrifuged at 16,000×g for 5 min to precipitate proteins. A 200 μl aliquot of the supernatant was transferred to a 1.5 ml tube and incubated at 60° C. for 30 min in a shaking water bath to perform the DON derivatization reaction. For the brain tissue, 5 μl of n-butanol containing 3N HCl was added per milligram tissue. The tissue sample was then homogenized with a glass pestle and was then vortexed and centrifuged, and prepared similarly to the plasma samples. Standard solutions were prepared by serial dilution to generate concentrations from 10 nM to 100 μM. DON was added to untreated mouse plasma or brain tissue to generate an internal standard curve. A high-resolution LC-MS QToF method (Agilent 6550) was used to analyze DON in the second procedure (FIG. 4B). Mice were injected with DON as above. Pre-weighed frozen brain tissue was transferred to a tube containing ceramic beads (Omni tubes). 3M HCl+butanol was added at a concentration of 5 μI/mg of tissue. […]"}}}
{"smiles": "[N-]=[N+]=CC(=O)CC[C@H](N)C(=O)O", "note": "[DON, 6-diazo-5-oxo-L-norleucine]", "values": [{"measurement": "toxic effects in non-tumour-bearing VM/Dk mice", "setting": "[1]; DON at the concentrations used in this study", "result": "no toxic effects"}, {"measurement": "initial versus final body weight", "setting": "[1]; VM-M3 tumour bearing mice, n=15 mice/group", "result": "similar"}, {"measurement": "toxicity in DON treated tumour-bearing mice", "setting": "[1]; until end of study, when mild muscle loss was observed in some mice", "result": "No noticeable toxicity"}, {"measurement": "DON in plasma", "setting": "[2]; 10 min after i.p. injection", "result": "detected"}, {"measurement": "DON in brain tissue", "setting": "[2]; 60 min following injection", "result": "detected"}, {"measurement": "concentration of DON in VM-M3 tumour tissue, mice fed KD-R versus mice fed SD-UR", "setting": "[2]; first procedure (FIG. 4A)", "result": "about 2 fold"}, {"measurement": "concentration of DON in VM-M3 tumour tissue, mice fed KD-R versus mice fed SD-UR", "setting": "[2]; independent experiment (FIG. 4B)", "result": "about 3 fold"}]}
